Earlier results, collected in paper PMC11915028 (ACS Pharmacology & Translational Science, 2025).

Molecular target: PSMA expression in PCa lesions (Homo sapiens, UniProt Q04609)
Description: High tumor-to-background ratios are required for the detection of small cancer/metastatic lesions. The required ratio is ∼10 for the detection of lesions with about 1 cm diameter, but for the detection of smaller lesions (0.3 cm), the required ratio should be almost 90.[30]

Sequence of PSMA expression in PCa lesions (Q04609 whole entry): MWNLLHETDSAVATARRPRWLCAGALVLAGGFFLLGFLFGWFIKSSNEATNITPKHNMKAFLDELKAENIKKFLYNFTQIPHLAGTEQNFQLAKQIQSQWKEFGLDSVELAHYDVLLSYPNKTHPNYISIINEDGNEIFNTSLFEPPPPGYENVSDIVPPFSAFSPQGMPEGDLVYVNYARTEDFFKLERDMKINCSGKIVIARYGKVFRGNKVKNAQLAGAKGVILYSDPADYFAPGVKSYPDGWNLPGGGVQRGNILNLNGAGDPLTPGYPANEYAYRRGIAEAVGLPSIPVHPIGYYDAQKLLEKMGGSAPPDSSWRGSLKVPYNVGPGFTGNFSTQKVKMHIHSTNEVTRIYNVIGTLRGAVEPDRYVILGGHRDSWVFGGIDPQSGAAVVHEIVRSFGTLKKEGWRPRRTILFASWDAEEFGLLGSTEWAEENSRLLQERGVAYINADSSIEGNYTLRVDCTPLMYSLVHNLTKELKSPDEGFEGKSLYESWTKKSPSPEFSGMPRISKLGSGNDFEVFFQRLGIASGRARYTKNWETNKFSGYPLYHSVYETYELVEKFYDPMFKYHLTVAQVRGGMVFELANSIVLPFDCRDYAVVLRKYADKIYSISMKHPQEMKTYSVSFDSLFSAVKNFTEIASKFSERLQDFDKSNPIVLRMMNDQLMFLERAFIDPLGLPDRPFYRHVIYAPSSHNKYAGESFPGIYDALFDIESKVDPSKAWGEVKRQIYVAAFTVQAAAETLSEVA

## O=C([O-])CN(CCN(CC(=O)[O-])Cc1cc(CCC(=O)NCCCCCC(=O)NCCCC[C@H](NC(=O)N[C@@H](CCC(=O)O)C(=O)O)C(=O)O)ccc1[O-])Cc1cc(CCC(=O)O)ccc1[O-].[68Ga+3].[OH3+] [[^68Ga]Ga-PSMA-11]
PET, three hours post-administration
  SUVmax, local recurrences of PCa: 3–39
human, in vivo
  SUVmax, normal prostate gland tissue: 2−4
